Laboratory results from BindingDB's records for doi:10.1016/s0960-894x(02)00078-1 (Xenova, 2002).

Biological target: Plasminogen activator inhibitor 1 (Homo sapiens, UniProt P05121)
Experiment: ChEBML_222791
Source text: Inhibitory activity against human plasminogen activator inhibitor-1 (PAI-1) evaluated by chromogenic assay.

Chain of Plasminogen activator inhibitor 1 (P05121 whole entry): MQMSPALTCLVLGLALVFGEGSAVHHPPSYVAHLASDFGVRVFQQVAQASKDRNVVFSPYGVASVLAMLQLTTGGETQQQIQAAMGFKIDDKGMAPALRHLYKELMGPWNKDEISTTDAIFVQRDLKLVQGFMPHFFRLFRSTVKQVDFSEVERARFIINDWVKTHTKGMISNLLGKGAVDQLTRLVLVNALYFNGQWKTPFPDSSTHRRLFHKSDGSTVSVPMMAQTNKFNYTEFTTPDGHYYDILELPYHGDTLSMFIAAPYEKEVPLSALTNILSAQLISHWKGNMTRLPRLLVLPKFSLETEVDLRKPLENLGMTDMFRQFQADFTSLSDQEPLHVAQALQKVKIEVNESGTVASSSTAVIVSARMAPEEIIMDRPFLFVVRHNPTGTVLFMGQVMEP

Which IC50 does the source give for `O=C(O)CCCCCCCOc1ccc(NC(=O)C2C(=O)CN(c3ccccc3Cl)C2=O)cc1` (centres undefined) [8-(4-{[1-(2-Chloro-phenyl)-4-hydroxy-2-oxo-2,5-dihydro-1H-pyrrole-3-carbonyl]-amino}-phenoxy)-octanoic acid] here?
Its IC50 is > 50 µM.

How did the IC50 turn out when `CC(=O)Nc1ccc(N2CC(=O)C(C(=O)Nc3ccc(OCCCCCCCC(=O)O)cc3)C2=O)cc1` (centres undefined) [8-(4-{[1-(4-Acetylamino-phenyl)-4-hydroxy-2-oxo-2,5-dihydro-1H-pyrrole-3-carbonyl]-amino}-phenoxy)-octanoic acid] was run?
Its IC50 is > 50 µM.

`COC(=O)CCCCCCCOc1ccc(NC(=O)C2C(=O)CN(c3ccc(Cl)cc3)C2=O)cc1` (centres undefined) [8-(4-{[1-(4-Chloro-phenyl)-4-hydroxy-2-oxo-2,5-dihydro-1H-pyrrole-3-carbonyl]-amino}-phenoxy)-octanoic acid methyl ester] was tested. Which IC50 did it give?
The IC50 was > 50 µM.

How did the IC50 turn out when `COc1ccccc1N1CC(=O)C(C(=O)Nc2ccc(OCCCCCCCC(=O)O)cc2)C1=O` (centres undefined) [8-(4-{[4-Hydroxy-1-(2-methoxy-phenyl)-2-oxo-2,5-dihydro-1H-pyrrole-3-carbonyl]-amino}-phenoxy)-octanoic acid] was run?
The IC50 was > 50 µM.

How did the IC50 turn out when `O=C(O)CCCCCCCOc1ccc(NC(=O)C2C(=O)CN(c3ccc(N4CCOCC4)cc3)C2=O)cc1` (centres undefined) [8-(4-{[4-Hydroxy-1-(4-morpholin-4-yl-phenyl)-2-oxo-2,5-dihydro-1H-pyrrole-3-carbonyl]-amino}-phenoxy)-octanoic acid] was run?
Its IC50 is > 50 µM.

For `O=C(O)CCCCCCCOc1ccc(NC(=O)C2C(=O)NC(Cc3ccc(O)cc3)C2=O)cc1` (centres undefined) [8-(4-{[4-Hydroxy-5-(4-hydroxy-benzyl)-2-oxo-2,5-dihydro-1H-pyrrole-3-carbonyl]-amino}-phenoxy)-octanoic acid], which IC50 is on record?
The IC50 was > 50 µM.

How did the IC50 turn out when `O=C(O)CCCCCCCOc1ccc(NC(=O)C2C(=O)CN(Cc3ccccc3)C2=O)cc1` (centres undefined) [8-{4-[(1-Benzyl-4-hydroxy-2-oxo-2,5-dihydro-1H-pyrrole-3-carbonyl)-amino]-phenoxy}-octanoic acid] was run?
Its IC50 is > 50 µM.

Which IC50 does the source give for `O=C(O)CCCCCCCOc1ccc(NC(=O)C2C(=O)CN(c3cccc4ccccc34)C2=O)cc1` (centres undefined) [8-{4-[(4-Hydroxy-1-naphthalen-1-yl-2-oxo-2,5-dihydro-1H-pyrrole-3-carbonyl)-amino]-phenoxy}-octanoic acid] here?
Its IC50 is > 50 µM.

Which IC50 does the source give for `CC1C(=O)C(C(=O)Nc2ccc(OCCCCCCCC(=O)O)cc2)C(=O)N1c1ccccc1` (centres undefined) [8-{4-[(4-Hydroxy-5-methyl-2-oxo-1-phenyl-2,5-dihydro-1H-pyrrole-3-carbonyl)-amino]-phenoxy}-octanoic acid] here?
The IC50 was > 50 µM.
